Data on 1 compound can be found in patent publication US20250250251A1, “PIPERIDINYLPYRIDINYLCARBONITRILE DERIVATIVES AS INHIBITORS OF GLUTAMINYL-PEPTIDE CYCLOTRANSFERASE AND GLUTAMINYL-PEPTIDE CYCLOTRANSFERASE LIKE PROTEIN” (Boehringer Ingelheim International GmbH, priority 2024, published 2025).

Where only a bound is given, the exact number is not on record here.

Series [1] deals with T1, QPCT (Homo sapiens, UniProt Q16769).
T1 construct: purchased Origine (OriGene) TP700028
The series is described as follows: Assay A: biochemical QPCT activity assay (MALDI-TOF MS, CD47 peptide substrate). As to conditions: Table 3, prior art compounds, read-out: Inhibition of QPCT: IC50. Summed up:
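Enzyme and compound pre-incubated 10 min at 24° C in 20 mM Tris pH 7.5 with TCEP, BSA, Tween20, then 40 min with CD47 peptide (10 μM for QPCTL, 20 μM for QPCT). Pyroglutamate product/internal standard ratio by MALDI-TOF MS, normalized to controls; four-parameter logistic fit.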

Series [2] relates to SIRPα signalling induced by Raji cells. The experiment in a line: Assay B: SIRPα signalling assay using Raji cells. It counts as cell-based. As to conditions: Homo sapiens, Table 5, prior art compounds, read-out: Inhibition of SIRPα signalling induced by Raji cells: IC50. In short, it runs like this:
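SIRPα signalling induced by Raji cells in a PathHunter reporter line, read as β-galactosidase complementation luminescence. Detection reagent 1 added for 15 min, then reagent 2 for 60 min in the dark, both at room temperature.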

Series [3] is described as follows: Assay C: permeability in CACO-2 cells. The format is in vitro ADME. The following applies: human, Caco-2, pH 7.2. In short, it runs like this:
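Caco-2 monolayers were grown 10–25 days on porous filter inserts. Compound was applied to the apical or basolateral donor side for A-B or B-A transport (3 filters), and the receiver was sampled for up to 2 h. Quantitation was by HPLC-MS/MS or scintillation; efflux ratio = B-A/A-B permeability.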

The subject of series [4] is CYP3A4 mRNA. The series is described as follows: Assay D: CYP induction screening assay in primary human hepatocytes. The format is in vitro ADME. The following applies: Table 10, prior art compounds, 48 h. In short, it runs like this: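 Single-donor cryopreserved human hepatocytes on collagen with Matrigel overlay were exposed to test compound at […] (0.1% DMSO) for 48 h, medium renewed at 24 h. CYP3A4 mRNA quantified by QuantiGene Plex/Luminex, normalised to geometric mean of RPL32, EIF4E2, GUSB and expressed relative to solvent control.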

For series [5], the system named is murine hepatocytes. The experiment in a line: Assay E: stability in murine hepatocytes. The format is in vitro ADME, mouse. As to conditions: Table 13, prior art compounds, 1 μM, 5% species serum. In short, it runs like this:
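Cryopreserved mouse hepatocytes, typically 1 Mio cells/mL in medium with 5% species serum, were dosed at 1 μM compound (0.05% DMSO) at 37 °C and sampled over 0–6 h. Parent decline was measured by HPLC-MS/MS and CLint calculated from dose/AUC, then scaled by well-stirred liver model.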

Series [6] has as its target isolated QPCTL (Homo sapiens, UniProt Q9NXS2). The following applies: as disclosed in WO 2024/020517; read-out: Inhibitory activity on isolated QPCTL, IC50; cited from earlier work.
The test system of series [7] is cellular (Ramos) QPCTL activity. The following applies: Ramos cells, as disclosed in WO 2024/020517; read-out: Inhibitory activity of cellular (Ramos) QPCTL activity in a FACS assay; cited from earlier work.

Sequence of isolated QPCTL (Q9NXS2 whole entry): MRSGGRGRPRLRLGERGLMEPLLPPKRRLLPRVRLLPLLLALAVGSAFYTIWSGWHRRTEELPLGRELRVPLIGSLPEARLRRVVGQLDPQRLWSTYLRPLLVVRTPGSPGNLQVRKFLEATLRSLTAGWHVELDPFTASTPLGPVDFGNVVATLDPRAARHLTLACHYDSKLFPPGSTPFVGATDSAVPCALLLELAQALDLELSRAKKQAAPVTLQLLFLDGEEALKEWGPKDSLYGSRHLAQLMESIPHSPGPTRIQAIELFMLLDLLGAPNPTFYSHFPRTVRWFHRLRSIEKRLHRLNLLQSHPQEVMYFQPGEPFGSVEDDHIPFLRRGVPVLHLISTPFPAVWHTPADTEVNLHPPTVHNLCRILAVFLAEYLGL
T1 sequence (Q16769 29-361): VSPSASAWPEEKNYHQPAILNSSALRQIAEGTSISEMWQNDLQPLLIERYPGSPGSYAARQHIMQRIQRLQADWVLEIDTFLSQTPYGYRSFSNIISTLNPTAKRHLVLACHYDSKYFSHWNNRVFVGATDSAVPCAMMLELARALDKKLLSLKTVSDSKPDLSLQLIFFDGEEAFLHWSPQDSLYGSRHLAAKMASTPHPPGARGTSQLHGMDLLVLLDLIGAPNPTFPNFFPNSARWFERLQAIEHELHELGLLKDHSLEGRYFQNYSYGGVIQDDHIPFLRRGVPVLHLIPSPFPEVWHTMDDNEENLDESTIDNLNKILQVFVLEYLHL

For `Cn1cnnc1C1CCN(c2c(-c3ccnnc3)ccc(Cl)c2C#N)CC1` [Compound 33, reference compound], the IC50 was 2 nM in series [1], 132 nM in series [2], below 100 nM in series [6] and below 100 nM in series [7]. Besides, in series [3], the Papp A→B was 0.2 ×10⁻⁶ cm/s. Moreover, the efflux ratio in series [3] (read-out: Efflux Ratio) stood at 45.3. For the same compound, in series [4], the “n-fold induction of CYP3A4 at 10 μM” value came to 1.7 n-fold. Besides, the “Mouse Hepatocyte Stability QH” value in series [5] stood at 45%.

In general, Papp A→B refers to how fast a substance crosses the layer from the apical side.
